The values that follow come from ChEMBL document CHEMBL1131773, “Synthesis and structure-activity relationships of new non-steroidal progesterone receptor ligands” (Bioorg Med Chem Lett, 1999).

Each structure is given as a SMILES string.

In this assay the target is T1, Progesterone receptor (Homo sapiens) (UniProt P06401).
T1 sequence (whole entry): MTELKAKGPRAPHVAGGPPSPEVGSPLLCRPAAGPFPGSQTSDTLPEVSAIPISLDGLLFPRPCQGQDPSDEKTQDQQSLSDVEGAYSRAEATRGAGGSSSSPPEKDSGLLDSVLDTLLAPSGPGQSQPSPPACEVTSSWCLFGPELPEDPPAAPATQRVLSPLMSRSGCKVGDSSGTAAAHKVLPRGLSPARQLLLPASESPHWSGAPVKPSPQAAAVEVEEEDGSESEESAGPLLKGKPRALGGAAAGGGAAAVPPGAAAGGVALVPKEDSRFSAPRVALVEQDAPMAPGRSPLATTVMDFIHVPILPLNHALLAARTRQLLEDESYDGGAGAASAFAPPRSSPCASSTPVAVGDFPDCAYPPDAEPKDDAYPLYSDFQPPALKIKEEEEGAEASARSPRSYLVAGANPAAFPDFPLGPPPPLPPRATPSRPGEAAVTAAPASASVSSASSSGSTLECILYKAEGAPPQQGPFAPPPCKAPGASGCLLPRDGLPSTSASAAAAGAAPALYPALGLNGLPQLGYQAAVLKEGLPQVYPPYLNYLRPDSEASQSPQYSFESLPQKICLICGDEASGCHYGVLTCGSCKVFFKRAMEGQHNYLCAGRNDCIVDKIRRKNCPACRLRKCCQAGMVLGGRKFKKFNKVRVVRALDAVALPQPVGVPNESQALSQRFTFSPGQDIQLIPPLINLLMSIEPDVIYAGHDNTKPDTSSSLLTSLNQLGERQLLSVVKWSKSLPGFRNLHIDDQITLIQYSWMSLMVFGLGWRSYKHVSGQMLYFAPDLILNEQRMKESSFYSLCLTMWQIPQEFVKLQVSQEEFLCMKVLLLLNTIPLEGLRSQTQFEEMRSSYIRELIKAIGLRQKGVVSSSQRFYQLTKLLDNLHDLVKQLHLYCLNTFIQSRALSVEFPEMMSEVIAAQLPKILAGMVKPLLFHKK
The assay is described as follows: Relative Binding affinity(RBA) to human progesterone receptor(PR) compared to PF1092A; (RBA= IC50 of PF1092A/ IC50 of test compound at human PR).
On to `CCC1=C2C[C@@]3(C)C(=CC[C@H](OC(C)=O)[C@@H]3C)C=C2OC1=O`, for which the relative binding affinity (RBA) came to 0.2. `CO[C@H]1[C@@H](OC(C)=O)CC=C2C=C3OC(=O)C(C)=C3C[C@@]21C` gave a relative binding affinity (RBA) of 0.7. To `CC(=O)O[C@H]1CC=C2C=C3OC(=O)C(C)=C3C[C@]2(C)C1` belongs 0.08; to `CC(=O)O[C@H]1CC=C2C=C3OC(=O)C(C)=C3C[C@]2(C)[C@H]1C`, 0.8. `CC(=O)O[C@H]1[C@H](C)C=C2C=C3OC(=O)C(C)=C3C[C@]2(C)[C@H]1C`: the relative binding affinity (RBA) came to 1.6. Then `CC(=O)O[C@H]1CC=C2C(C)=C3OC(=O)C(C)=C3C[C@]2(C)[C@H]1C`, with 0.07; and `CC(=O)O[C@H]1CC=C2C=C3OC(=O)C(C)=C3[C@H](C)[C@]2(C)[C@H]1C`, with 0.8; and `CC(=O)O[C@H]1[C@@H](O)C=C2C=C3OC(=O)C(C)=C3C[C@]2(C)[C@H]1C`, with 1.

`CC(=O)O[C@H]1CC=C2C=C3OC(=O)C=C3C[C@]2(C)[C@H]1C`: the relative binding affinity (RBA) is 1.2.
